Here are results for two molecules from patent publication US12692463B2, “Blends of alcohol ethoxylate and methyl ester sulfonate in unit dose products for improved mildness” (Henkel AG & Co. KGaA, priority 2023, dated 2026).

The data set is described as follows: Percent swelling of water-soluble film strips submerged in detergent formula. In kind it is physicochemical. The following applies: Minitab mixture regression on solvent component proportions, Formulas 7-16. The procedure:
The term % swelling as used in the present application means the percent increase or decrease in weight, for example the weight of a pouch strip, such as a polyvinyl alcohol strip, following submersion in a detergent composition for a given period of time, for example twenty-four hours (hr). The % swelling is calculated as described in the examples by taking a post-soaking weight, subtracting an initial, pre-soaking weight, and dividing by the initial, pre-soaking weight. To measure the percent (%) swelling, a fresh sheet of film was traced and cut into three identical film strips (3 cm wide by 8.5 cm long) for each formula being tested. Strips were labeled #1, #2, and #3 and placed into a tared petri dish one by one, recording the weights of each piece of film individually. Strips #1 and #2 were placed parallel to one another on the bottom of the petri dish and strip #3 was laid perpendicularly over strips #1 and #2. The petri dish was then filled half way, ensuring all film strips were submerged in the formula being tested. The petri dish was wrapped with parafilm, sealing around the edge of the petri dish. […] The cleaned film strip #3 was placed into a clean, tared petri dish lid, and the final weight of the film strip was recorded. […] Percent (%) swelling ratios were determined for Formulas 7-16 using polyvinyl alcohol (PVA) strips. […]

For the molecule `OCC(O)CO` [Glycerin], the “estimated regression coefficient for % swelling” value is listed as 0.8037. In the case of `CC(O)CO` (centres unmarked) [PG, Propylene Glycol], the “estimated regression coefficient for % swelling” value was 0.4263.
